Reference: patent US7078195B2, “Antibiotics AA-896” (Wyeth Holdings Corporation, priority 2001, dated 2006)
Values after ≈ are worked out from the molar mass of the structure shown.

Legend:
Test in all cases: Broth dilution MIC
Type in all cases: cell-based
CNS GC 4537 = conditions: Mueller-Hinton broth, 18 hours at 35° C.
Procedure: (§1) The in vitro antibacterial activity of AA-896-A1, AA-896-A2, AA-896-A3, AA-896-A4, AA-896-A5, AA-896-B1, AA-896-B2, AA-896-B3, AA-896-B4, AA-896-B5, AA-896-B6, AA-896-B7, AA-896-C1, AA-896-C2, AA-896-C3, AA-896-C4, AA-896-D1, AA896-D2 and AA-896-D3 is determined against a spectrum of Gram-positive and Gram-negative bacteria by a standard broth dilution method. Serial dilution of the compounds are made in Mueller-Hinton broth and inoculated with a bacterial suspension. The lowest concentration of compound that inhibited the growth of a bacterial strain after 18 hours of incubation at 35° C. is reported as the minimal inhibitory concentration (MIC) for that strain.

CNS GC 4538 = conditions: Mueller-Hinton broth, 18 hours at 35° C.
Procedure: as §1

CNS GC 4547 = conditions: Mueller-Hinton broth, 18 hours at 35° C.
Procedure: as §1

E. cloacae GC 3783 = conditions: 18 hours at 35° C.; for Antimicrobial Activity (MIC): Mueller-Hinton broth
Procedure: as §1

E. coli GC 2203 = conditions: 18 hours at 35° C.; for Antimicrobial Activity (MIC): Mueller-Hinton broth
Procedure: as §1

E. coli GC 3226 = conditions: 18 hours at 35° C.; for Antimicrobial Activity (MIC): Mueller-Hinton broth
Procedure: as §1

E. coli GC 4559 = conditions: 18 hours at 35° C.; for Antimicrobial Activity (MIC): Mueller-Hinton broth
Procedure: as §1

E. coli GC 4560 = conditions: 18 hours at 35° C.; for Antimicrobial Activity (MIC): Mueller-Hinton broth
Procedure: as §1

E. faecalis GC 2242 = conditions: 18 hours at 35° C.; for Antimicrobial Activity (MIC): Mueller-Hinton broth
Procedure: as §1

E. faecalis GC 4555 = conditions: 18 hours at 35° C.; for Antimicrobial Activity (MIC): Mueller-Hinton broth
Procedure: as §1

E. faecalis GC 842 = conditions: 18 hours at 35° C.; for Antimicrobial Activity (MIC): Mueller-Hinton broth
Procedure: as §1

K. pneumoniae GC 4534 = conditions: 18 hours at 35° C.; for Antimicrobial Activity (MIC): Mueller-Hinton broth
Procedure: as §1

M. morganii GC 4531 = conditions: 18 hours at 35° C.; for Antimicrobial Activity (MIC): Mueller-Hinton broth
Procedure: as §1

P. aeruginosa GC 2214 = conditions: 18 hours at 35° C.; for Antimicrobial Activity (MIC): Mueller-Hinton broth
Procedure: as §1

P. aeruginosa GC 4532 = conditions: 18 hours at 35° C.; for Antimicrobial Activity (MIC): Mueller-Hinton broth
Procedure: as §1

P. rettgeri GC 4530 = conditions: 18 hours at 35° C.; for Antimicrobial Activity (MIC): Mueller-Hinton broth
Procedure: as §1

S. aureus GC 1131 = conditions: 18 hours at 35° C.; for Antimicrobial Activity (MIC): Mueller-Hinton broth
Procedure: as §1

S. aureus GC 2216 = conditions: 18 hours at 35° C.; for Antimicrobial Activity (MIC): Mueller-Hinton broth
Procedure: as §1

S. aureus GC 4536 = conditions: 18 hours at 35° C.; for Antimicrobial Activity (MIC): Mueller-Hinton broth
Procedure: as §1

S. marcescens GC 4077 = conditions: 18 hours at 35° C.; for Antimicrobial Activity (MIC): Mueller-Hinton broth
Procedure: as §1

E. faecalis GC 242 = conditions: Mueller-Hinton broth, 18 hours at 35° C.
Procedure: as §1

[1] = read-out: Antimicrobial Activity (MIC)

| Structure (SMILES) | Antimicrobial Activity (MIC) (CNS GC 4537) | Antimicrobial Activity (MIC) (CNS GC 4538) | Antimicrobial Activity (MIC) (CNS GC 4547) | Antimicrobial Activity (MIC) (E. cloacae GC 3783) | Antimicrobial Activity (MIC) (E. coli GC 2203) | Antimicrobial Activity (MIC) (E. coli GC 3226) | Antimicrobial Activity (MIC) (E. coli GC 4559) | Antimicrobial Activity (MIC) (E. coli GC 4560) | Antimicrobial Activity (MIC) (E. faecalis GC 2242) | Antimicrobial Activity (MIC) (E. faecalis GC 4555) | Antimicrobial Activity (MIC) (E. faecalis GC 842) | Antimicrobial Activity (MIC) (K. pneumoniae GC 4534) | Antimicrobial Activity (MIC) (M. morganii GC 4531) | Antimicrobial Activity (MIC) (P. aeruginosa GC 2214) | Antimicrobial Activity (MIC) (P. aeruginosa GC 4532) | Antimicrobial Activity (MIC) (P. rettgeri GC 4530) | Antimicrobial Activity (MIC) (S. aureus GC 1131) | Antimicrobial Activity (MIC) (S. aureus GC 2216) | Antimicrobial Activity (MIC) (S. aureus GC 4536) | Antimicrobial Activity (MIC) (S. marcescens GC 4077) | further results |
| --- | --- | --- | --- | --- | --- | --- | --- | --- | --- | --- | --- | --- | --- | --- | --- | --- | --- | --- | --- | --- | --- |
| CC(C)C(NC(=O)NC(C(=O)NC(C(=O)NCCCNC(C(=O)O)C(O)C1OC(n2ccc(=O)[nH]c2=O)C(O)C1O)C(OC(=O)CCCCCCCCCCCCN(O)C(=N)N)C(C)C)C1CCNC(=N)N1)C(=O)O [AA-896-A5, 6-[[3-[3-[[13-(Carbamimidoylhydroxyamino)tridecanoyl]oxy]-2-[2-[[(1-carboxy-2-methyl-propyl)carbamoyl]amino]-2-(hexahydro-2-iminopyrimidin-4-yl)acetamido]-4-methyl-pentanamido]propyl]amino]-1,6-dideoxy-1-(3,4-dihydro-2,4-dioxopyrimidin-1(2H)-yl)-β-D-heptofuranuronic acid] |  |  |  |  |  |  |  |  |  |  |  |  |  |  |  |  |  |  |  |  | MIC (CNS GC 4537; [1]): 16 µg/mL (≈ 15 µM); MIC (CNS GC 4538; [1]): 4 µg/mL (≈ 3.74 µM); MIC (CNS GC 4547; [1]): 16 µg/mL (≈ 15 µM); MIC (E. cloacae GC 3783; Enterobacter cloacae, GC3783, Mueller-Hinton broth, read-out: Antimicrobial Activity (MIC)): 1 µg/mL (≈ 0.934 µM); MIC (E. coli GC 2203; Escherichia coli, GC2203, Mueller-Hinton broth, read-out: Antimicrobial Activity (MIC)): 16 µg/mL (≈ 15 µM); MIC (E. coli GC 3226; Escherichia coli, GC3226, Mueller-Hinton broth, read-out: Antimicrobial Activity (MIC)): 16 µg/mL (≈ 15 µM); MIC (E. coli GC 4559; Escherichia coli, GC4559, Mueller-Hinton broth, read-out: Antimicrobial Activity (MIC)): 4 µg/mL (≈ 3.74 µM); MIC (E. coli GC 4560; Escherichia coli, GC4560, Mueller-Hinton broth, read-out: Antimicrobial Activity (MIC)): ≤ 0.06 µg/mL; MIC (E. faecalis GC 2242; Enterococcus faecalis, GC2242, Mueller-Hinton broth, read-out: Antimicrobial Activity (MIC)): > 64 µg/mL; MIC (E. faecalis GC 4555; Enterococcus faecalis, GC4555, Mueller-Hinton broth, read-out: Antimicrobial Activity (MIC)): 32 µg/mL (≈ 29.9 µM); MIC (E. faecalis GC 842; Enterococcus faecalis, GC842, Mueller-Hinton broth, read-out: Antimicrobial Activity (MIC)): > 64 µg/mL; MIC (K. pneumoniae GC 4534; Klebsiella pneumoniae, GC4534, Mueller-Hinton broth, read-out: Antimicrobial Activity (MIC)): 8 µg/mL (≈ 7.48 µM); MIC (M. morganii GC 4531; Morganella morganii, GC4531, Mueller-Hinton broth, read-out: Antimicrobial Activity (MIC)): > 64 µg/mL; MIC (P. aeruginosa GC 2214; Pseudomonas aeruginosa, GC2214, Mueller-Hinton broth, read-out: Antimicrobial Activity (MIC)): 32 µg/mL (≈ 29.9 µM); MIC (P. aeruginosa GC 4532; Pseudomonas aeruginosa, GC4532, Mueller-Hinton broth, read-out: Antimicrobial Activity (MIC)): 32 µg/mL (≈ 29.9 µM); MIC (P. rettgeri GC 4530; Providencia rettgeri, GC4530, Mueller-Hinton broth, read-out: Antimicrobial Activity (MIC)): > 64 µg/mL; MIC (S. aureus GC 1131; Staphylococcus aureus, GC1131, Mueller-Hinton broth, read-out: Antimicrobial Activity (MIC)): 16 µg/mL (≈ 15 µM); MIC (S. aureus GC 2216; Staphylococcus aureus, GC2216, Mueller-Hinton broth, read-out: Antimicrobial Activity (MIC)): 16 µg/mL (≈ 15 µM); MIC (S. aureus GC 4536; Staphylococcus aureus, GC4536, Mueller-Hinton broth, read-out: Antimicrobial Activity (MIC)): 8 µg/mL (≈ 7.48 µM); MIC (S. marcescens GC 4077; Serratia marcescens, GC4077, Mueller-Hinton broth, read-out: Antimicrobial Activity (MIC)): > 64 µg/mL |
| COC1C(OC(C(NCCCNC(=O)C(NC(=O)C(NC(=O)NC(C(=O)O)C(C)C)C2CCNC(=N)N2)C(OC(=O)CCCCC(C)C)C(C)C)C(=O)O)C2OC(n3ccc(=O)[nH]c3=O)C(O)C2O)OC(CN)C1O [AA-896-B6, 5-O-[5-Amino-5-deoxy-2-O-methyl-β-D-ribofuranosyl]-6-[[3-[2-[2-[[(1-carboxy-2-methyl-propyl)carbamoyl]amino]-2-(hexahydro-2-iminopyrimidin-4-yl)acetamido]-4-methyl-3-[(6-methylheptanoyl)oxy]pentanamido]propyl]amino]-1,6-dideoxy-1-(3,4-dihydro-2,4-dioxopyrimidin-1(2H)-yl)-β-D-heptofuranuronic acid] | >64 µg/mL | 64 µg/mL | >64 µg/mL | 8 µg/mL | 64 µg/mL | 64 µg/mL | 32 µg/mL | <=0.06 μg/ml | >64 µg/mL | >64 µg/mL | >64 µg/mL | 32 µg/mL | >64 µg/mL | 64 µg/mL | >64 µg/mL | >64 µg/mL | >64 µg/mL | >64 µg/mL | >64 µg/mL | >64 µg/mL |  |
| CC(C)CCCCC(=O)OC(C(C)C)C(NC(=O)C(NC(=O)NC(C(=O)O)C(C)C)C1CCNC(=N)N1)C(=O)NCCCNC(C(=O)O)C(OC1OC(CN)C(O)C1O)C1OC(n2ccc(=O)[nH]c2=O)C(O)C1O [AA-896-B7, 5-O-[5-Amino-5-deoxy-β-D-ribofuranosyl]-6-[[3-[2-[2-[[(1-carboxy-2-methylpropyl)-carbamoyl]amino]-2-(hexahydro-2-iminopyrimidin-4-yl)acetamido]-4-methyl-3-[(6-methylheptanoyl)oxy]pentanamido]propyl]amino]-1,6-dideoxy-1-(3,4-dihydro-2,4-dioxopyrimidin-1(2H)-yl)-β-D-heptofuranuronic acid] | >64 µg/mL | >64 µg/mL | >64 µg/mL | 16 µg/mL | >64 µg/mL | >64 µg/mL | 64 µg/mL | <=0.06 μg/ml | >64 µg/mL | >64 µg/mL | >64 µg/mL | 64 µg/mL | >64 µg/mL | >64 µg/mL | >64 µg/mL | >64 µg/mL | >64 µg/mL | >64 µg/mL | >64 µg/mL | >64 µg/mL |  |
| CC(C)CC(NC(=O)C(NC(=O)NC(C(=O)O)C(C)C)C1CCNC(=N)N1)C(=O)NCCCNC(C(=O)O)C(OC1OC(CN)C(O)C1O)C1OC(n2ccc(=O)[nH]c2=O)C(O)C1O [AA-896-D2, 5-O-[5-Amino-5-deoxy-β-D-ribofuranosyl]-6-[[3-[2-[2-[[(1-carboxy-2-methylpropyl)-carbamoyl]amino]-2-(hexahydro-2-iminopyrimidin-4-yl)acetamido]-4-methylpentanamido]-propyl]amino]-1,6-dideoxy-1-(3,4-dihydro-2,4-dioxopyrimidin-1(2H)-yl)-β-D-heptofuran-uronic acid] | >32 µg/mL | >32 µg/mL | >32 µg/mL | 16 µg/mL | 16 µg/mL | 16 µg/mL | 32 µg/mL | 0.25 µg/mL |  | >32 µg/mL | >32 µg/mL | >32 µg/mL | >32 µg/mL | 32 µg/mL | 32 µg/mL | >32 µg/mL | >32 µg/mL | >32 µg/mL | >32 µg/mL | >32 µg/mL | Antimicrobial Activity (MIC) (E. faecalis GC 242): >32 µg/mL |
